# Results from patent publication US6737038B1, “Use of small molecule radioligands to discover inhibitors of amyloid-beta peptide production and for diagnostic imaging” (Bristol-Myers Squibb Company, priority 1998, dated 2004).
# Assays:
# [1] = tested on: HEK293 cells expressing APP 695 wt; assay: Aβ production in HEK293 cells expressing APP 695 wt, compared with I-7T binding to membranes of the same cell line; format: cell-based
# Description: The concentration of Compound (I-7) leading to half-maximal inhibition (IC50) of proteolytic activity leading to Aβ production in HEK293 cells expressing APP 695 wt is similar to the concentration leading to half-maximal inhibition (IC50) of Compound (I-7T) binding to membranes derived from the same cell line. […] Also using a compound of Formula (I), we have discovered a macromolecule containing a binding site of action for compounds of Formula (I) critical to the processing of APP and the production of Aβ.
# bind specifically to a binding site on a macromolecule or a complex of macromolecules involved in APP processing to produce reduction of Aβ peptide production. For example, the concentration of Compound (I-7) leading to half-maximal inhibition (IC50) of Aβ production in HEK293 cells expressing APP 695 wt is similar to the concentration leading to half-maximal inhibition (IC50) of Compound (I-7T) binding to membranes derived from the same cell line.
# [2] = tested on: membrane binding site of Example 7; assay: Radioligand Competition Binding Assay (RCB Assay)
# presenilin 1 = target: T1, presenilin 1 (Homo sapiens, UniProt P49768); assay: immunoprecipitation of cross-linked polypeptides with antibodies to presenilin 1; format: binding; conditions: THP-1 membranes, Example 43T 30 nM plus competing compound
# T1 construct: endogenous in cells; host or cells: THP-1 cell membranes
# Description: The membranes were collected by centrifugation. The membranes were extracted with 50 mM Tris, pH 7.5 containing 100 mM KCl, 2 mM EDTA, 2% CHAPS and 1 complete protease inhibitor tablet per 25 ml buffer (COMPLETE™, Boehringer Mannheim; product number 1697 498)) for 1 hour at 4° C. The detergent soluble fraction was recovered by centrifugation (40,000 g, 30 min, 4° C.). The membrane extract was diluted one half with water. 500 ul of the membrane extract were pre-incubated with 10 ul of normal mouse IgG and 50 ul anti-mouse IgG Sepharose (Sigma) for 1 hour at 4° C. The supernatant was recovered by centrifugation. Subsequently, 10 ug of preimmune IgG (Sigma) or 10 ug of a monoclonal antibody to presenilin 1 was added in the presence of 50 ul anti-mouse IgG Sepharose. Examples of commercially available antibodies to presenilin 1 are Chemicon International: rat anti-human Presenilin 1 monoclonal antibody; product number MAB 1563; or Santa Cruz Biotechnology: goat anti Presenilin 1; product number SC-1244; or Santa Cruz Biotechnology: goat anti Presenilin 1; product number SC-1245. […] Radioactivity bound to the Sepharose beads was dissociated by boiling in SDS sample buffer (4×) containing 50 mM dithiothreitol. […]
apparent Ki: RCB Assay conducted with Example 7T versus Example 11T [2],Molecule,IC50 of Aβ production compared with IC50 of Compound (I-7T) binding to membranes from the same cell line [1],also measured
statistically significant correlation,"CCC[C@H](C(N)=O)[C@@H](CC(C)C)C(=O)N[C@H]1CCCCN(Cc2cccc(Oc3ccccc3)c2)C1=O [Example 7, (2R,3S) N1-[(3S)-Hexahydro-1-(3-phenoxybenzyl)-2-oxo-1H-azepin-3-yl]-2-(2-methylpropyl)-3-(propyl)-butanediamide]",similar,–
–,"Tritiated (2S,3R) N1-[1,3-Dihydro-1-methyl-2-oxo-5-(phenyl)-2H-1,4-benzodiazepin-3-yl]-2-(2-methylpropyl)-3-(n-propyl)-butanediamide [Example 43T]",correlation holds,equivalency to Example 7T as radioactive tracer in the RCB Assay [2]: can be used instead of Example 7T
statistically significant correlation,CC(C)C[C@H](CC(N)=O)C(=O)N[C@H]1CCCCN(Cc2cccc(Oc3ccccc3)c2)C1=O [Example 99],–,–
statistically significant correlation,CCC[C@H](C(N)=O)[C@@H](CC(C)C)C(=O)N[C@H]1CCCCN(Cc2cccc(C(=O)c3ccccc3)c2)C1=O [Example 11],–,"IC50 in β APPA Assay versus RCB Assay with Example 7T as radiolabeled standard [2]: statistically significant correlation of IC50 values; cross-linking to the membrane binding site ([2]; THP-1 membranes, photolysis at 365 nm): cross-linked to the membrane binding site of Example 7"

Molecule,apparent Ki: RCB Assay conducted with Example 7T versus Example 11T [2],IC50 of Aβ production compared with IC50 of Compound (I-7T) binding to membranes from the same cell line [1],also measured
"CC(NC(=O)Cc1cc(F)cc(F)c1)C(=O)NC1N=C(c2ccccc2)c2ccccc2N(C)C1=O (stereo not shown) [Example 98, reference compound]",statistically significant correlation,–,competition of cross-linking / immunoprecipitation of labeled bands (FIG. 2) (presenilin 1): not in the presence of Example 98
